These results are taken from patent US8633315B2, “Substituted hydroxyethyl amine compounds as beta-secretase modulators and methods of use” (Amgen Inc., priority 2007, dated 2014).

Like-named read-outs stand apart in the source and are kept apart here.

Data set [1] concerns Cells stably expressing Amyloid Precursor Protein (APP). Nature of the data set: In vitro BACE cell-based assay (HEK cell assay): Aβ40 in conditioned medium by sandwich ELISA. The settings on record: Homo sapiens. A digest of the protocol: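 Secreted Aβ40 was quantified by time-resolved fluorescence sandwich ELISA, capturing with pAb40 for 3 h at 4 °C and detecting with biotinylated 6E10 for 2 h at 4 °C. Media came from APP-expressing cells exposed 24 h to compounds (10-point series from 100 or 10 μM, 0.1% DMSO); IC50 derived from percent of control.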

For the next data set, the system named is Abeta peptide. Description: In vivo inhibition of beta-secretase: Abeta peptide in CSF and brain after oral dosing. The settings on record: orally dosed at about 30 mg/kg; for inhibition in vivo at 30 mg/kg: Rattus norvegicus, po, CSF, read-out: reduction of Abeta peptide in the CSF of the rat. The text has this: In Vivo Inhibition of Beta-Secretase
Several animal models, including mouse, rat, dog, and monkey, may be used to screen for inhibition of beta-secretase activity in vivo following administration of a test compound sample. Animals used in this invention can be wild type, transgenic, or gene knockout animals. For example, the Tg2576 mouse model, prepared and conducted as described in Hsiao et al., 1996, Science 274, 99-102, and other non-transgenic or gene knockout animals are useful to analyze in vivo inhibition of Amyloid beta peptide (Abeta) production in the presence of inhibitory test compounds. Generally, 2 to 18 month old Tg2576 mice, gene knockout mice or non-transgenic animals are administered test compounds formulated in vehicles, such as cyclodextran, phosphate buffers, hydroxypropyl methylcellulose or other suitable vehicles. […] A separate group of animals receive 2% hydroxypropyl methylcellulose, 1% Tween80 alone, containing no test compound, and serve as a vehicle-control group. At the end of the test period, animals are sacrificed and brain tissues, plasma or cerebrospinal fluid are collected. Brains are either homogenized in 10 volumes (w/v) of 0.2% diethylamine (DEA) in 50 mM NaCl (Best et al., 2005, Journal of Pharmacology and Experimental Therapeutics, 313, 902-908), or in 10 volumes of 0.5% TritonX-100 in Tris-buffered saline (pH at about 7.6). Homogenates are centrifuged at 355,000 g, 4° C. for 30 minutes. CSF or brain supernatants are then analyzed for the presence of Abeta peptide by specific sandwich ELISA assays based on ECL (Electrochemiluminescence) technology. For example, rat Abeta40 is measured using biotinylated-4G8 (Signet) as a capture antibody and Fab40 (an in-house antibody specific to the C-terminal of Abeta40) as a detection antibody. For example, 4 hours after administration of 30 mg/kg oral dose of the test compound in 2% hydroxypropyl methylcellulose, 1% Tween80 (pH2.2) to 200 g male Sprague Dawley rats, Abeta peptide levels are measured for reduction by X % and Y % in cerebrospinal fluid and brain, respectively, when compared to the levels measured in the vehicle-treated or control […].
Actual vehicles used: Oral: 2% HPMC, 1% Tween80, pH 2.2
• IV: 5% EtOH, 45% Propylene glycol in 5% Dextrose

A further data set deals with BACE1 (Homo sapiens, UniProt P56817). Description: In vitro enzymatic BACE FRET (fluorescence resonance energy transfer) assay. It is filed as biochemical. The method in brief: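 Fluorescence (ex 488 nm, […]) was read after Tris addition raised pH to neutral, ending a one-hour incubation. Reaction started with 50 nM fluorophore/quencher peptide substrate in pH 4.2 acetate (0.05 M) containing 100 uM genapol and 10% DMSO final.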

A short description of data set [2]: Microsomal stability assay, human liver microsomes. In kind it is in vitro ADME. The source says:
(§1) Microsomal Stability Assay
For orientation: Liver microsomes are vesicles of endoplasmic reticulum, rich in cytochrome P450 enzymes.

The target in the next data set is CYP3A4 (CYP3A) (Homo sapiens, UniProt P08684). Nature of the data set: CYP3A inhibition assay (midazolam, pooled human liver microsomes). It is filed as in vitro ADME. The note with it: human, pooled human liver microsomes, pH 7.4, probe midazolam (printed as about […]); read-out: 3A4 IC50.
The nature of data set [3]: Microsomal stability assay, rat liver microsomes. In kind it is in vitro ADME.
Excerpt: as §1

[4] abbreviates: HEK293, 24 h, Aβ40 in conditioned medium after 24 h incubation.

CYP3A4 (CYP3A), sequence (P08684 2-503): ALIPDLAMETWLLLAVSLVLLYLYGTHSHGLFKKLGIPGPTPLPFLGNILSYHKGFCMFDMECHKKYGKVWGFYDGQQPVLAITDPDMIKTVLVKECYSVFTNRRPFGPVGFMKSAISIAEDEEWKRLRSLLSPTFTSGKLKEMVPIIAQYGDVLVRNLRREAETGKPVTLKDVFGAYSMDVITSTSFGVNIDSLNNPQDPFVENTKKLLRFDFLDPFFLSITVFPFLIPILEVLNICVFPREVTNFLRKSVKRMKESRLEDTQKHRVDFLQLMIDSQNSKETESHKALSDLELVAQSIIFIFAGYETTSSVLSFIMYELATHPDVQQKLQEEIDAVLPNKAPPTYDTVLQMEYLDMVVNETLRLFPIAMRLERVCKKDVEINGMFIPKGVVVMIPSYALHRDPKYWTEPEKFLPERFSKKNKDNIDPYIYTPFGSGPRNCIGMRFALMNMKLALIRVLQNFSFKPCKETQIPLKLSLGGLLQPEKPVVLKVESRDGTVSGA
BACE1, sequence (P56817 46-501, species assumed): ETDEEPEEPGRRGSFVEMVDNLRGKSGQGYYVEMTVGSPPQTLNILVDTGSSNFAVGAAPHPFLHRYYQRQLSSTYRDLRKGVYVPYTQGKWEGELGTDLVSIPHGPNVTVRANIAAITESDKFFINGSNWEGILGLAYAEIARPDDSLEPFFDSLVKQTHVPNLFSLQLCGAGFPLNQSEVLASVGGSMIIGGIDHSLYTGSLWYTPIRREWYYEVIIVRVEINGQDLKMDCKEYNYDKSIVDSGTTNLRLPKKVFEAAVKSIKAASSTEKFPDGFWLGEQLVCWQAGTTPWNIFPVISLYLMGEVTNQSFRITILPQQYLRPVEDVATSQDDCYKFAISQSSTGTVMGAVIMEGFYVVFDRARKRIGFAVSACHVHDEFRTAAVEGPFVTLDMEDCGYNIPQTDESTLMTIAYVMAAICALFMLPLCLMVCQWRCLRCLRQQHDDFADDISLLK

With `C=CC[C@H](NC(C)=O)[C@H](O)CN[C@H]1CC2(CCC2)Oc2c1cc(CC(C)(C)C)nc2NC` [Example 44, N-((1S)-1-((1R)-2-(((4′S)-6′-(2,2-dimethylpropyl)-8′-(methylamino)-3′,4′-dihydrospiro[cyclobutane-1,2′-pyrano[2,3-c]pyridin]-4′-yl)amino)-1-hydroxyethyl)-3-buten-1-yl)acetamide], the IC50 in data set [1] (setting [4]) was found to be 20 nM; at BACE1 it was 65 nM. The inhibition in vivo at 30 mg/kg in the data set on Abeta peptide was ≥ 5%.

Turning to `CC#CC[C@H](NC(=O)[C@@H](C)OC)[C@H](O)CN[C@H]1CC2(CCC2)Oc2ncc(CC(C)(C)C)cc21` [Example 87, (2R)-N-((1S)-1-((1R)-2-(((4′S)-6′-(2,2-dimethylpropyl)-3′,4′-dihydrospiro[cyclobutane-1,2′-pyrano[2,3-b]pyridin]-4′-yl)amino)-1-hydroxyethyl)-3-pentyn-1-yl)-2-(methyloxy)propanamide], the IC50 in data set [1] (setting [4]) was 185 nM; on BACE1 it was 109 nM. In addition, in the data set with Abeta peptide, the inhibition in vivo at 30 mg/kg was ≥ 5%.

With `C=CC[C@H](NC(=O)CCOC)[C@H](O)CN[C@H]1CC2(CCC2)Oc2ncc(CC(C)(C)C)cc21` [Example 91, N-((1S)-1-((1R)-2-(((4′S)-6′-(2,2-dimethylpropyl)-3′,4′-dihydrospiro[cyclobutane-1,2′-pyrano[2,3-b]pyridin]-4′-yl)amino)-1-hydroxyethyl)-3-buten-1-yl)-3-(methyloxy)propanamide], in the data set on Abeta peptide, the inhibition in vivo at 30 mg/kg was ≥ 5%. Moreover, the IC50 on BACE1 was determined as 68 nM.

Take `CC#CC[C@H](NC(=O)COC)[C@H](O)CN[C@H]1CC2(CCC2)Oc2ncc(CC(C)(C)C)cc21` [Example 89, N-((1S)-1-((1R)-2-(((4′S)-6′-(2,2-dimethylpropyl)-3′,4′-dihydrospiro[cyclobutane-1,2′-pyrano[2,3-b]pyridin]-4′-yl)amino)-1-hydroxyethyl)-3-pentyn-1-yl)-2-(methyloxy)acetamide]: the IC50 in data set [1] (setting [4]) was 132 nM; at BACE1, 71 nM. Moreover, the inhibition in vivo at 30 mg/kg in the data set with Abeta peptide was ≥ 5%.

In the case of `C=CC[C@H](NC(=O)COC)[C@H](O)CN[C@H]1CC2(CCC2)Oc2c1cc(CC(C)(C)C)nc2NC` [Example 47, N-((1S)-1-((1R)-2-(((4′S)-6′-(2,2-dimethylpropyl)-8′-(methylamino)-3′,4′-dihydrospiro[cyclobutane-1,2′-pyrano[2,3-c]pyridin]-4′-yl)amino)-1-hydroxyethyl)-3-buten-1-yl)-2-(methyloxy)acetamide], the IC50 in data set [1] (setting [4]) is 38 nM; on BACE1, 164 nM. For the same compound, in the data set with Abeta peptide (brain), the “reduction of Abeta peptide in the brain of the rat” value is ~25%.

For `C=CC[C@H](NC(=O)COC)[C@H](O)CN[C@H]1CC2(CCC2)Oc2c1cc(CC(C)C)cc2-n1ccnc1` [compound 209], the values for the IC50 (in data set [1] (HEK293); on BACE1 (read-out: BACE 1 FRET assay)) were 328 nM and 338 nM, respectively. This compound returned an HLM in data set [2] of 31 µL/min/mg. Further, at CYP3A4 (CYP3A), the IC50 at 10 min stood at 100 nM. The RLM in data set [3] is 183 µL/min/mg.

Take `C=CC[C@H](NC(=O)COC)[C@H](O)CN[C@H]1CC2(CCC2)Oc2c(-c3cnc[nH]3)cc(CC(C)(C)C)cc21` [compound 218, N-((1S)-1-((1R)-2-(((4S)-6-(2,2-dimethylpropyl)-8-(1H-imidazol-5-yl)-3,4-dihydrospiro[chromene-2,1′-cyclobutan]-4-yl)amino)-1-hydroxyethyl)-3-buten-1-yl)-2-methoxyacetamide]: the IC50 in data set [1] (HEK293) turned out to be 71 nM; at BACE1 (read-out: BACE 1 FRET assay) it was 179 nM. Also, in data set [2], the HLM is 215 µL/min/mg. Further, the IC50 at 10 min on CYP3A4 (CYP3A) is 300 nM. In data set [3], this compound displayed an RLM of 185 µL/min/mg.

On to `C#CC[C@H](NC(=O)[C@@H](C)OC)[C@H](O)CN[C@H]1CC2(CCC2)Oc2c1cc(CC(C)(C)C)nc2NC` [compound 222], for which the IC50 amounted to 891 nM in data set [1] (HEK293) and 1220 nM at BACE1 (read-out: BACE 1 FRET assay). This compound had an HLM in data set [2] of 165 µL/min/mg. Further, the IC50 at 10 min on CYP3A4 (CYP3A) stood at 1400 nM. In addition, the RLM in data set [3] amounted to 156 µL/min/mg.

With `C=CC[C@H](NC(=O)COC)[C@H](O)CN[C@H]1CC2(CCC2)Oc2c1cc(CC(C)(C)C)nc2Nc1ccncc1` [compound 232], the IC50 in data set [1] (HEK293) turned out to be 21 nM; at BACE1 (read-out: BACE 1 FRET assay) it was 127 nM. Moreover, in data set [2], the HLM is 551 µL/min/mg. In addition, at CYP3A4 (CYP3A), the IC50 at 10 min came out at 700 nM. The compound also returned an RLM in data set [3] of 174 µL/min/mg.

Take `C=CC[C@H](NC(=O)COC)[C@H](O)CN[C@H]1CC2(CCC2)Oc2c(-c3nccs3)cc(CC(C)(C)C)cc21` [compound 215]: the IC50 in data set [1] (HEK293) turned out to be 838 nM; at BACE1 (read-out: BACE 1 FRET assay), 57 nM. The compound further yielded an HLM in data set [2] of 736 µL/min/mg. In addition, the IC50 at 10 min at CYP3A4 (CYP3A) is 1000 nM. Besides, in data set [3], the RLM was determined as 551 µL/min/mg.

Consider `C=CC[C@H](NC(=O)CF)[C@H](O)CN[C@H]1CC2(CCC2)Oc2ncc(CC(C)(C)C)cc21` [Example 90, N-((1S)-1-((1R)-2-(((4′S)-6′-(2,2-dimethylpropyl)-3′,4′-dihydrospiro[cyclobutane-1,2′-pyrano[2,3-b]pyridin]-4′-yl)amino)-1-hydroxyethyl)-3-buten-1-yl)-2-fluoroacetamide], for which, in the data set on Abeta peptide, the inhibition in vivo at 30 mg/kg is ≥ 5%. For the same compound, the IC50 on BACE1 turned out to be 68 nM.

Take `C=CC[C@H](NC(C)=O)[C@H](O)CN[C@H]1CC2(CCC2)Oc2c1cc(CC(C)(C)C)nc2Nc1nccs1` [compound 235]: the results for the IC50 (in data set [1] (HEK293); on BACE1 (read-out: BACE 1 FRET assay)) were 121 nM and 31 nM, respectively. Moreover, the HLM in data set [2] was 244 µL/min/mg. Besides, at CYP3A4 (CYP3A), the IC50 at 10 min turned out to be 2700 nM. For the same compound, the RLM in data set [3] is 100 µL/min/mg.

With `C=CC[C@H](NC(=O)[C@@H]1CN(Cc2nccs2)CCO1)[C@H](O)CN[C@H]1CC2(CCC2)Oc2ncc(CC(C)(C)C)cc21` [compound 246, (2S)-N-((1S)-1-((1R)-2-(((4′S)-6′-(2,2-dimethylpropyl)-3′,4′-dihydrospiro[cyclobutane-1,2′-pyrano[2,3-b]pyridin]-4′-yl)amino)-1-hydroxyethyl)-3-buten-1-yl)-4-(1,3-thiazol-2-ylmethyl)-2-morpholinecarboxamide], the IC50 in data set [1] (HEK293) came to 116 nM; on BACE1 (read-out: BACE 1 FRET assay), 128 nM. Also, the HLM in data set [2] is 736 µL/min/mg. The IC50 at 10 min at CYP3A4 (CYP3A) stood at 700 nM. In data set [3], this compound displayed an RLM of 335 µL/min/mg.

Consider `C=CC[C@H](NC(=O)C1COC(c2cccnc2)O1)[C@H](O)CN[C@H]1CC2(CCC2)Oc2ncc(CC(C)(C)C)cc21` (stereo partly drawn) [compound 243, N-((1S)-1-((1R)-2-(((4′S)-6′-(2,2-dimethylpropyl)-3′,4′-dihydrospiro[cyclobutane-1,2′-pyrano[2,3-b]pyridin]-4′-yl)amino)-1-hydroxyethyl)-3-buten-1-yl)-2-(3-pyridinyl)-1,3-dioxolane-4-carboxamide], for which the IC50 in data set [1] (HEK293) stood at 982 nM; on BACE1 (read-out: BACE 1 FRET assay), 2160 nM. The compound also registered an HLM in data set [2] of 601 µL/min/mg. Besides, the IC50 at 10 min on CYP3A4 (CYP3A) came to 300 nM. In data set [3], this compound displayed an RLM of 173 µL/min/mg.

`C=CC[C@H](NC(=O)COC)[C@H](O)CN[C@H]1CC2(CCC2)Oc2c(-c3ccncc3)cc(CC(C)(C)C)cc21` [compound 219]: the IC50 was 249 nM in data set [1] (HEK293) and 170 nM on BACE1 (read-out: BACE 1 FRET assay). Further, the HLM in data set [2] was 106 µL/min/mg. Also, the IC50 at 10 min at CYP3A4 (CYP3A) came out at 100 nM. Besides, the RLM in data set [3] worked out at 360 µL/min/mg.

Regarding `C=CC[C@H](NC(=O)COC)[C@H](O)CN[C@H]1CC2(CCC2)Oc2c(-c3nccs3)cc(CC(C)C)cc21` [compound 212, N-((1S)-1-((1R)-1-hydroxy-2-(((4S)-6-(2-methylpropyl)-8-(1,3-thiazol-2-yl)-3,4-dihydrospiro[chromene-2,1′-cyclobutan]-4-yl)amino)ethyl)-3-buten-1-yl)-2-methoxyacetamide], the IC50 in data set [1] (HEK293) worked out at 262 nM; at BACE1 (read-out: BACE 1 FRET assay) it was 92 nM. This compound also had an HLM in data set [2] of 775 µL/min/mg. The IC50 at 10 min on CYP3A4 (CYP3A) was 700 nM. In addition, the RLM in data set [3] amounted to 399 µL/min/mg.
